Experimental data as given in the NIST ThermoML archive (doi:10.1021/je800159w).
± gives the expanded uncertainty stated by the source.

Columns and labels:
[1] = refractive index (Na D-line) (dimensionless); xn = mol fraction of the nth substance listed; conditions: 298.15 K, 101 kPa, Liquid, Standard Abbe refractometry
[2] = xn = mol fraction of the nth substance listed; conditions: 101 kPa, Liquid
[3] = refractive index (Na D-line) (dimensionless); conditions: 298.15 K; 101.33 kPa; Liquid; Standard Abbe refractometry
[4] = 101 kPa, Liquid

CCO [ethanol] + CCOS(=O)(=O)[O-].CC[n+]1cccc(C)c1
Conditions | refractive index
[1], x1 = 1 | 1.36023 ± 0.00031

[2], x1 = 1
Conditions | mass density [kg/m3] | viscosity [mPa·s]
298.15 K | 785.46 ± 1.4 | 1.082 ± 0.4
313.15 K | 772 ± 1.4 | 0.827 ± 0.4
328.15 K | 758.55 ± 1.5 | 0.641

CCOS(=O)(=O)[O-].CC[n+]1cccc(C)c1 [1-ethyl-3-methylpyridinium ethylsulfate] + CCO
[1]
Conditions | refractive index
x2 = 0.0609 | 1.50392 ± 0.00065
x2 = 0.1108 | 1.50181 ± 0.00062
x2 = 0.2066 | 1.4973 ± 0.00058
x2 = 0.3083 | 1.49126 ± 0.00053
x2 = 0.4004 | 1.48469 ± 0.00049
x2 = 0.4998 | 1.476 ± 0.00045
x2 = 0.6034 | 1.46448 ± 0.00041
x2 = 0.7034 | 1.45003 ± 0.00038
x2 = 0.8452 | 1.41977 ± 0.00034
x2 = 0.9389 | 1.38864 ± 0.00032

[2]
Conditions | mass density, 298.15 K [kg/m3] | mass density, 313.15 K [kg/m3] | mass density, 328.15 K [kg/m3] | viscosity, 298.15 K [mPa·s] | viscosity, 313.15 K [mPa·s] | viscosity, 328.15 K [mPa·s]
x2 = 0.0609 | 1214.93 ± 3.8 | 1205.03 ± 3.7 | 1195.2 ± 3.6 | 116.7 ± 14 | 55.2 ± 1.1 | 31.2 ± 1.1
x2 = 0.1108 | 1208.33 ± 3.5 | 1198.38 ± 3.4 | 1188.52 ± 3.4 | 96.9 ± 8.9 | 48.57 ± 1.7 | 28.12 ± 1
x2 = 0.2066 | 1193.93 ± 3 | 1183.86 ± 2.9 | 1173.91 ± 2.8 | 68 ± 3 | 36.25 ± 1.3 | 21.86 ± 0.83
x2 = 0.3083 | 1175.71 ± 2.5 | 1165.53 ± 2.4 | 1155.46 ± 2.3 | 45.35 ± 1.6 | 25.91 ± 0.93 | 16.41 ± 0.68
x2 = 0.4004 | 1155.73 ± 2 | 1145.51 ± 2 | 1135.36 ± 1.9 | 31.11 ± 1.1 | 18.88 ± 0.74 | 12.52 ± 0.58
x2 = 0.4998 | 1129.53 ± 1.6 | 1119.07 ± 1.6 | 1108.74 ± 1.5 | 20.04 ± 0.76 | 12.92 ± 0.59 | 8.971 ± 0.51
x2 = 0.6034 | 1094.96 ± 1.2 | 1084.3 ± 1.2 | 1073.73 ± 1.1 | 12.17 ± 0.57 | 8.317 ± 0.5 | 6.023 ± 0.46
x2 = 0.7034 | 1051.68 ± 0.86 | 1040.72 ± 0.81 | 1029.83 ± 0.75 | 7.452 ± 0.48 | 5.332 ± 0.45 | 3.99 ± 0.43
x2 = 0.8452 | 961.67 ± 0.64 | 950.09 ± 0.69 | 938.48 ± 0.74 | 3.322 ± 0.42 | 2.502 ± 0.41 | 1.943 ± 0.41
x2 = 0.9389 | 870.77 ± 1 | 858.52 ± 1.1 | 846.1 ± 1.1 | 1.812 ± 0.41 | 1.388 ± 0.4 | 1.086 ± 0.4

CCO [ethanol]
Conditions | refractive index
[3] | 1.36023 ± 0.00031

[4]
Conditions | mass density [kg/m3] | viscosity [mPa·s]
298.15 K | 785.46 ± 1.4 | 1.082 ± 0.4
313.15 K | 772 ± 1.4 | 0.827 ± 0.4
328.15 K | 758.55 ± 1.5 | 0.641
